Literature values, collected in patent US10427959B2, “Method and system for the autonomous self-limiting generation of chlorine dioxide” (TRUOX, INC., priority 2016, dated 2019).
Where two headings read alike, the source gives them in different places.

Conditions: saturated aqueous solution

solubility (at 20° C.) [wt %] | SMILES | solubility (at 25° C.) [wt %]
 | CC1(C)C(=O)N(Cl)C(=O)N1Br [BCDMH, 1,3-bromo-chloro-5,5-dimethylhydantoin] | 0.2
0.1 | CC1(C)C(=O)N(Br)C(=O)N1Br [DBDMH, 1,3-dibromo-5,5-dimethylhydantoin] | 
